Results from patent US20220339285A1, “DISSACHARIDE FORMULATIONS FOR CONTROLLED DRUG RELEASE” (TECHNICAL UNIVERSITY OF DENMARK, priority 2019, published 2022).

Tests used:
[1] = Tested solubility of APIs in carbohydrate ester gels (Example 21); settings: in the gel formulations listed for each API in Table 8; maximal solubility may be higher than tested
Procedure: Compositions are given in weight percent (or weight ratio) and each compound is weighed into one vial. The mixture is placed in an ultrasonication bath at 70-80° C. for 1-2 hours and occasionally vortexed to generate homogenous solutions that is subsequently stored at 4° C. until further use. Afterwards, all active pharmaceutical ingredients (APIs) are incorporated into the gels proportionally by adding gel on top of freeze-dried APIs or combinations of freeze-dried APIs. The gel is subjected to magnetic stirring at 40-50° C. until the API or combination of APIs is completely dissolved. The gel-API mixture is transferred and stored in sealed vials at room temperature or at 4° C. Certain gel-API mixtures may be stored at −20° C.

[2] = Experimentally obtained drug solubilities in gels; assay type: physicochemical
Text: Experimentally obtained drug solubilities are given in the table (all percentages are weight %).

[3] = In vitro release of Gardiquimod and Resiquimod from SuBen gels with different co-solvents, HPLC (Example 28); assay type: physicochemical; settings: 49 days; for in vitro release of Gardiquimod: 1.2 mg/g, PBS 37° C
Procedure: SuBen:GTO:EtOH (60:25:15 (% w/w)) and SuBen:Lipiodol:EtOH (60:25:15 (% w/w)) were prepared by simple mixing and sonication (80° C., 90-120 min) as described in example 19. […] SuBen:GTO:EtOH:PLA (60:25:15:0.5 (% w/w)), SuBen:Ethyl-palmitate:EtOH (60:25:15 (% w/w)), and SuBen:Ethyl-oleate:EtOH (60:25:15 (% w/w)) were prepared by simple mixing and sonication (80° C., 90-120 min) as described in example 19. […] The vials are closed with lids and are incubated at 37° C. At each sampling point, take 1 mL of buffer and place it inside an Eppendorf tube. Then add 1 mL of fresh buffer to replace the taken sample. The samples are analyzed by HPLC. […] For both compounds, the flowrate was 1 mL/min and the column temperature was 40° C.

[4] = In vitro release of RepSox and Galunisertib from LOIB based gels into PBS (Example 14); settings: for cumulative release: after 14 days, 8 mg/gram in 82.5 (% w/w) LOIB gel, 100 μL in 2 ml PBS
Procedure: Following, 100 μL of each gel were injected in duplicates into 2 ml of PBS.

[5] = Co-solubilization of R848 and RepSox in LOIB gel (Example 15); assay type: physicochemical; settings: with 2.4 mg R848
Procedure: The mixture was solubilized using a magnetic stirring for 2 hours at 40-50° C. under continuous visual inspection.

[6] = In vivo release of TGFb inhibitors from intratumoral gel depots (Example 32); settings: 8 mg/g, 50 μL intratumoral, CT26 tumors, 7 days
Procedure: Animal handling: For each formulation 50 μL of gel was injected intratumorally in female Balb/c mice with CT26 tumors (Initial tumor volume of approximately 200 mm^3). The mice were sacrificed at different time points and gel samples were collected. The gels were stored at 4° C. until analysis. For each gel, four mice were sacrificed at each timepoint.
Samples were heated to 50° C. and stirred at 600 rpm to promote dissolution. The samples were subsequently filtered through 0.45 μm pore, nylon syringe filters.
HPLC method: Samples were analyzed on a Shimadzu Nexera-i HPLC. […] The solvent system consisted of mobile phase A (5% MeCN, 0.1% TFA in water) and mobile phase B (0.1% TFA in MeCN). Chromatographic separation was achieved using an optimized gradient.

[7] = In vitro release of DOX base from SuBen and LOIB gels, fluorescence (Example 33); assay type: physicochemical; settings: 7 days at 37° C
Procedure: The vials were incubated at 37° C. After 7 days, 1 mL of PBS was taken and analysed by fluorescence spectroscopy.
Fluorescence spectroscopy: Fluorescence measurements were taken by a Tecan fluorescence microplate reader using 96-well, transparent Nunc plates. Sample volume was 200 μL.

[8] = Solubility and integrity of CLA-1 and CLA-8 in SuBen and LOIB gels (Example 22); assay type: physicochemical; settings: weight percentage
Procedure: HPLC assay: Samples were analyzed using a Shimadzu Nexera-i instrument. […] Chromatographic separation was achieved using a gradient of 40 to 100% phase B in 10 min. Ultraviolet detection at 280 nm was used to identify the CT contrast agents. Gel samples were prepared by dilution of 50 μL gel in 1 mL MeCN, which were then diluted 10-fold in MeCN.

[9] = gel composition e.g LOIB 82.5%, SuBen 60%

SMILES: COc1ccc(CNC(=O)Nc2ncc([N+](=O)[O-])s2)cc1 [AR-A014418]
- Tested solubility in gels [1]: 1 mg/g gel

SMILES: CC1(N)CCN(c2cnc(-c3cccc(Cl)c3Cl)c(N)n2)CC1 [SHP099]
- Solubility ([2]; gel composition e.g SuBen 60%): >1 mg/g gel

SMILES: CCNCc1nc2c(N)nc3ccccc3c2n1CC(C)(C)O [Gardiquimod]
- Solubility [2, 9]: >1.5 mg/g gel
- reduction of Gardiquimod release on substitution of GTO with Lipiodol [3]: 6 fold
- in vitro release of Gardiquimod ([3]; SuBen:GTO:EtOH (60:25:15) gel): 52.5%
- in vitro release of Gardiquimod ([3]; SuBen:Lipiodol:EtOH (60:25:15) gel): 8.4%

SMILES: Fc1ccc(Cl)cc1-c1nc(Nc2ccncc2)c2nccnc2n1 [SD-208]
- Solubility ([2]; gel composition e.g SuBen 60%): >8 mg/g gel
- Solubility ([2]; gel composition e.g SuBen:LOIB 35%/35%): >8 mg/g gel

SMILES: CC(C)Cn1cnc2c(N)nc3ccccc3c21 [Imiquimod]
- Solubility ([2]; gel composition e.g SuBen 60%): >4.8 mg/g gel

SMILES: CCOCc1nc2c(N)nc3ccccc3c2n1CC(C)(C)O [Resiquimod (R848), Resiquimod]
- Solubility [2, 9]: >10 mg/g gel

SMILES: Cc1cccc(-c2[nH]ncc2-c2ccc3ncccc3n2)n1 [RepSox]
- Solubility [2, 9]: >8 mg/g gel
- cumulative release [4]: around 40%
- dissolved together with R848 in LOIB:GTO:EtOH (82.5:7.5:10) gel [5]: 8 mg/g
- in vivo release from gel depot (ranking) [6]: fastest release

SMILES: COc1cccc2c1C(=O)c1c(O)c3c(c(O)c1C2=O)C[C@@](O)(C(=O)CO)C[C@@H]3O[C@H]1C[C@H](N)[C@H](O)[C@H](C)O1 [DOX base, doxorubicin]
- release from gels into PBS [7]: released from the gels

SMILES: Cc1cccc(-c2nn3c(c2-c2ccnc4ccc(C(N)=O)cc24)CCC3)n1 [Galunisertib]
- Solubility [2, 9]: >8 mg/g gel
- solubilized in LOIB-based gel formulations [4]: ≥ 8 mg/gram
- cumulative release [4]: 27%
- Tested solubility in gels [1]: 8 mg/g gel

SMILES: O=C(OCC1OC(OC(=O)c2ccc(I)cc2)C(OC(=O)c2ccc(I)cc2)[C@@H](OC(=O)c2ccc(I)cc2)[C@@H]1O[C@@H]1OC(COC(=O)c2ccc(I)cc2)[C@H](OC(=O)c2ccc(I)cc2)[C@H](OC(=O)c2ccc(I)cc2)C1OC(=O)c1ccc(I)cc1)c1ccc(I)cc1 (stereo partly drawn) [CLA-8, α,β Lactose octa para-iodobenzoate]
- CLA-8 completely solubilized in LOIB gels [8]: up to 10%
- CLA-8 completely solubilized in SuBen gels [8]: up to 20%
